Where two headings read alike, the source gives them in different places.
Experiments:
Assay type in all cases: cell-based
[1] = tested on: Dictyostelium discoideum; test: Infection assay: growth of the host amoeba D. discoideum (fluorescence) in infection; settings: for activity at 0.411523 µM / activity at 1.23457 µM / activity at 3.7037 µM / activity at 11.1111 µM / activity at 33.3333 µM / activity at 100 µM: 72 h; for IC50: read-out: IC50 Dd in infection (μM)
Excerpt: (§1) Since fractions were not weighed individually, the injection mass was used to calculate an average mass per fraction and thus a nominal mass concentration.

[2] = tested on: Mycobacterium marinum; test: Anti-biotic assay: M. marinum growth in broth (luminescence); settings: for activity at 0.411523 µM / activity at 1.23457 µM / activity at 3.7037 µM / activity at 11.1111 µM / activity at 33.3333 µM / activity at 100 µM: 72 h
Experimental: as §1
Plating bacteria and compounds or fractions was performed analogously to the infection assay described above. Bacteria growth was monitored with the Agilent BioTek H1 plate reader by recording luminescence at 32 °C.
The prepared plates were sealed and stored at 4 °C overnight. On the day of the experiment, nine 10 cm Petri dishes were infected (as described before) and grouped into three pools.

[3] = tested on: Mycobacterium marinum; test: Infection assay: intracellular M. marinum growth (luminescence) in D. discoideum; settings: for activity at 0.411523 µM / activity at 1.23457 µM / activity at 3.7037 µM / activity at 11.1111 µM / activity at 33.3333 µM / activity at 100 µM: 72 h; for activity at 0.411523 µM: conc 0.411522634 uM; for activity at 1.23457 µM: conc 1.234567901 uM; for activity at 3.7037 µM: conc 3.703703704 uM; for activity at 11.1111 µM: conc 11.11111111 uM; for activity at 33.3333 µM: conc 33.33333333 uM; for activity at 100 µM: conc 100 uM; for IC50: interpolated between the two concentrations closest to residual growth 0.5, top concentration 100 μM
Excerpt: as §1

[4] = read-out: mean normalized residual growth, Dd in infection
[5] = read-out: median normalized residual growth, Dd in infection
[6] = read-out: mean (normalised M. marinum growth, Mm in broth)
[7] = read-out: median (normalised M. marinum growth, Mm in broth)
[8] = vehicle control set at 1, read-out: mean normalized residual growth, Mm in infection
[9] = vehicle control set at 1, read-out: median normalized residual growth, Mm in infection

| SMILES | activity at 0.411523 µM [1, 4] [%] | activity at 1.23457 µM [1, 4] [%] | activity at 3.7037 µM [1, 4] [%] | activity at 11.1111 µM [1, 4] [%] | activity at 33.3333 µM [1, 4] [%] | activity at 100 µM [1, 4] [%] | activity at 0.411523 µM [1, 5] [%] | activity at 1.23457 µM [1, 5] [%] | activity at 3.7037 µM [1, 5] [%] | activity at 11.1111 µM [1, 5] [%] | activity at 33.3333 µM [1, 5] [%] | activity at 100 µM [1, 5] [%] | IC50 [1] [µM] | activity at 0.411523 µM [2, 6] [%] | activity at 1.23457 µM [2, 6] [%] | activity at 3.7037 µM [2, 6] [%] | activity at 11.1111 µM [2, 6] [%] | activity at 33.3333 µM [2, 6] [%] | activity at 100 µM [2, 6] [%] | activity at 0.411523 µM [2, 7] [%] | further results |
| --- | --- | --- | --- | --- | --- | --- | --- | --- | --- | --- | --- | --- | --- | --- | --- | --- | --- | --- | --- | --- | --- |
| Oc1cc(O)cc([C@H]2c3c(O)cc(/C=C/c4ccc(O)cc4O)cc3O[C@@H]2c2ccc(O)cc2O)c1 (relative stereo) [Compound 10, (−)-Gnetumontanin A] | 126 | 88.6 | 59.8 | 54.4 | 51.5 | 6.33 | 102 | 97 | 90.5 | 84.7 | 80.4 | 76.2 | > 100 | 111 | 103 | 95.3 | 96.3 | 99.7 | 90 | 116 | activity at 1.23457 µM [2, 7]: 103%; activity at 3.7037 µM [2, 7]: 95.2%; activity at 11.1111 µM [2, 7]: 96.3%; activity at 33.3333 µM [2, 7]: 97.6%; activity at 100 µM [2, 7]: 91%; activity at 0.411523 µM [3, 8]: 90.6%; activity at 0.411523 µM [3, 9]: 90.5%; activity at 1.23457 µM [3, 8]: 132%; activity at 1.23457 µM [3, 9]: 135%; activity at 3.7037 µM [3, 8]: 120%; activity at 3.7037 µM [3, 9]: 120%; activity at 11.1111 µM [3, 8]: 145%; activity at 11.1111 µM [3, 9]: 152%; activity at 33.3333 µM [3, 8]: 157%; activity at 33.3333 µM [3, 9]: 160%; activity at 100 µM [3, 8]: 41.3%; activity at 100 µM [3, 9]: 59.1%; IC50 [3]: > 100 µM |
| Oc1ccc(/C=C/c2cc(O)c3c(c2)O[C@H](c2ccc(O)cc2)[C@H]3c2cc(O)c3c(c2)O[C@H](c2ccc(O)cc2)[C@H]3c2cc(O)c3c(c2)O[C@H](c2ccc(O)cc2)[C@H]3c2cc(O)cc(O)c2)cc1 [Compound 8, Gnemonol B] | 159 | 139 | 139 | 120 | 114 | 51.3 | 92.7 | 85.7 | 92.1 | 88.6 | 81.5 | 33.4 | 66.7 | 118 | 111 | 113 | 119 | 117 | 114 | 125 | activity at 1.23457 µM [2, 7]: 116%; activity at 3.7037 µM [2, 7]: 117%; activity at 11.1111 µM [2, 7]: 115%; activity at 33.3333 µM [2, 7]: 120%; activity at 100 µM [2, 7]: 115%; IC50 ([2]; read-out: IC50 Mm in broth (μM)): > 100 µM; activity at 0.411523 µM [3, 8]: 132%; activity at 0.411523 µM [3, 9]: 146%; activity at 1.23457 µM [3, 8]: 105%; activity at 1.23457 µM [3, 9]: 94.6%; activity at 3.7037 µM [3, 8]: 127%; activity at 3.7037 µM [3, 9]: 144%; activity at 11.1111 µM [3, 8]: 124%; activity at 11.1111 µM [3, 9]: 128%; activity at 33.3333 µM [3, 8]: 112%; activity at 33.3333 µM [3, 9]: 117%; activity at 100 µM [3, 8]: 61%; activity at 100 µM [3, 9]: 45.3%; IC50 [3]: 66.7 µM |
| Oc1ccc([C@@H]2Oc3cc(O)ccc3[C@H]3[C@H](c4cc(O)cc(O)c4)c4c(O)cc(O)cc4[C@H]32)cc1 [Compound 9, (−)-Gnemontanin G] | 58.2 | 70.8 | 60.4 | 64.9 | 72.5 | 103 | 95.8 | 97.6 | 99.6 | 93.8 | 91.4 | 91.6 | > 100 | 87.4 | 93.9 | 92.7 | 81.3 | 89.2 | 92.6 | 86.6 | activity at 1.23457 µM [2, 7]: 96.7%; activity at 3.7037 µM [2, 7]: 92.3%; activity at 11.1111 µM [2, 7]: 78.6%; activity at 33.3333 µM [2, 7]: 87.9%; activity at 100 µM [2, 7]: 91.7%; activity at 0.411523 µM [3, 8]: 59%; activity at 0.411523 µM [3, 9]: 69.2%; activity at 1.23457 µM [3, 8]: 82.5%; activity at 1.23457 µM [3, 9]: 85.7%; activity at 3.7037 µM [3, 8]: 76.2%; activity at 3.7037 µM [3, 9]: 74.2%; activity at 11.1111 µM [3, 8]: 58.4%; activity at 11.1111 µM [3, 9]: 59.5%; activity at 33.3333 µM [3, 8]: 65.6%; activity at 33.3333 µM [3, 9]: 72.4%; activity at 100 µM [3, 8]: 71.9%; activity at 100 µM [3, 9]: 75.7%; IC50 [3]: > 100 µM |
